Test results taken from US12384771B2, “Pleuromutilin derivative containing thiazole-pyridine benzyl quaternary ammonium salt side chain and preparation method and use thereof” (SHAANXI UNIVERSITY OF SCIENCE AND TECHNOLOGY, priority 2022, dated 2025).
≈ marks a conversion by molar mass, not a printed value. Structures can show the parent of a compound that is named as a salt. Where two headings read alike, the source gives them in different places.

Columns and labels:
[1] = test system: Acinetobacter baumannii ATCC 19606; experiment: MIC, microbroth dilution, standard strains; format: cell-based
Protocol: (§1) The minimum inhibitory concentration (MIC) of the pleuromutilin derivative containing thiazole-pyridine benzyl quaternary ammonium salt side chain was tested with moxifloxacin as a positive control (purchased from Shanghai Macklin Biochemical Technology Co., Ltd.) using a microbroth dilution method.
(§2) Standard strains include gram-positive bacteria: Staphylococcus epidermidis ATCC 12228, Staphylococcus aureus ATCC 29213, ATCC 25923 and methicillin-resistant Staphylococcus aureus ATCC 33591; gram-negative bacteria: Salmonella ATCC 14028, Acinetobacter baumannii ATCC 19606, Escherichia coli ATCC 25922 and CMCC 44103, all the strains were purchased from the American Type Culture Collection.

[2] = test system: Escherichia coli ATCC 25922; experiment: MIC, microbroth dilution, standard strains; format: cell-based
Protocol: as §1, §2

[3] = test system: Escherichia coli CMCC 44103; experiment: MIC, microbroth dilution, standard strains; format: cell-based
Protocol: as §1, §2

Salmonella ATCC 14028 = experiment: MIC, microbroth dilution, standard strains; format: cell-based
Protocol: as §1, §2

[4] = test system: Staphylococcus aureus ATCC 25923; experiment: MIC, microbroth dilution, standard strains; format: cell-based
Protocol: as §1, §2

[5] = test system: Staphylococcus aureus ATCC 29213; experiment: MIC, microbroth dilution, standard strains; format: cell-based
Protocol: as §1, §2

[6] = test system: Staphylococcus epidermidis ATCC 12228; experiment: MIC, microbroth dilution, standard strains; format: cell-based
Protocol: as §1, §2

[7] = test system: methicillin-resistant Staphylococcus aureus ATCC 33591; experiment: MIC, microbroth dilution, standard strains; format: cell-based
Protocol: as §1, §2

[8] = test system: carbapenem-resistant Acinetobacter baumannii (CR-AB) 18-184; experiment: MIC, clinical drug-resistant bacteria; format: cell-based
Protocol: (§3) The minimum inhibitory concentration (MIC) of the pleuromutilin derivative containing thiazole-pyridine benzyl quaternary ammonium salt side chain was tested with moxifloxacin as a positive control (purchased from Shanghai Macklin Biochemical Technology Co., Ltd.) using a microbroth dilution method. At the same time, the pleuromutilin derivative containing thiazole-pyridine benzyl quaternary ammonium salt side chain of the invention was compared with the marketed pleuromutilin antibiotics, such as retapamulin (purchased from Nanjing Chemlin Chemical Industry Co., Ltd.), tiamulin (purchased from Shanghai Yuanye Bio-Technology Co., Ltd) and valnemulin (purchased from Shanghai Acmec Biochemical Co., Ltd), in order to screen out pleuromutilin derivatives with better activity.
(§4) Clinical resistant bacteria include multidrug-resistant Pseudomonas aeruginosa (MDR-PA) 18-993, 18-756 and 18-126, multidrug-resistant Klebsiella pneumoniae (MDR-KP) 18-893, 18-754 and 18-1482, methicillin-resistant Staphylococcus aureus (MRSA) 18-171, 18-209 and 18-575, vancomycin-resistant Enterococcus faecalis (VRE) 18-94, 18-80 and 18-507, and carbapenem-resistant Acinetobacter baumannii (CR-AB) 18-184, 18-560 and 18-882, all the clinical drug-resistant strains were from Huashan Hospital, Fudan University.

[9] = test system: carbapenem-resistant Acinetobacter baumannii (CR-AB) 18-560; experiment: MIC, clinical drug-resistant bacteria; format: cell-based
Protocol: as §3, §4

[10] = test system: carbapenem-resistant Acinetobacter baumannii (CR-AB) 18-882; experiment: MIC, clinical drug-resistant bacteria; format: cell-based
Protocol: as §3, §4

[11] = test system: methicillin-resistant Staphylococcus aureus (MRSA) 18-171; experiment: MIC, clinical drug-resistant bacteria; format: cell-based
Protocol: as §3, §4

[12] = test system: methicillin-resistant Staphylococcus aureus (MRSA) 18-209; experiment: MIC, clinical drug-resistant bacteria; format: cell-based
Protocol: as §3, §4

[13] = test system: methicillin-resistant Staphylococcus aureus (MRSA) 18-575; experiment: MIC, clinical drug-resistant bacteria; format: cell-based
Protocol: as §3, §4

[14] = test system: multidrug-resistant Klebsiella pneumoniae (MDR-KP) 18-1482; experiment: MIC, clinical drug-resistant bacteria; format: cell-based
Protocol: as §3, §4

[15] = test system: multidrug-resistant Klebsiella pneumoniae (MDR-KP) 18-754; experiment: MIC, clinical drug-resistant bacteria; format: cell-based
Protocol: as §3, §4

[16] = test system: multidrug-resistant Klebsiella pneumoniae (MDR-KP) 18-893; experiment: MIC, clinical drug-resistant bacteria; format: cell-based
Protocol: as §3, §4

[17] = test system: multidrug-resistant Pseudomonas aeruginosa (MDR-PA) 18-126; experiment: MIC, clinical drug-resistant bacteria; format: cell-based
Protocol: as §3, §4

[18] = test system: multidrug-resistant Pseudomonas aeruginosa (MDR-PA) 18-756; experiment: MIC, clinical drug-resistant bacteria; format: cell-based
Protocol: as §3, §4

[19] = test system: multidrug-resistant Pseudomonas aeruginosa (MDR-PA) 18-993; experiment: MIC, clinical drug-resistant bacteria; format: cell-based
Protocol: as §3, §4

[20] = test system: vancomycin-resistant Enterococcus faecalis (VRE) 18-507; experiment: MIC, clinical drug-resistant bacteria; format: cell-based; settings: read-out: Minimum inhibitory concentration against clinical drug-resistant bacteria
Protocol: as §3, §4

[21] = test system: vancomycin-resistant Enterococcus faecalis (VRE) 18-80; experiment: MIC, clinical drug-resistant bacteria; format: cell-based; settings: read-out: Minimum inhibitory concentration against clinical drug-resistant bacteria
Protocol: as §3, §4

[22] = test system: vancomycin-resistant Enterococcus faecalis (VRE) 18-94; experiment: MIC, clinical drug-resistant bacteria; format: cell-based; settings: read-out: Minimum inhibitory concentration against clinical drug-resistant bacteria
Protocol: as §3, §4

physchem = settings: thermodynamic from solid
Protocol: Experimental method: representative compounds 2, 4 and 7 were selected for solubility determination, and retapamulin hydrochloride was used as a control. 1 mg of each sample was taken and quantitatively dissolved in a 10 mL volumetric flask, and the absorption peak area was measured by a high-performance liquid chromatography; then, the saturated solutions of the representative compounds 2, 4 and 7 and the control drug retapamulin were diluted 10-fold, and the absorption peak area was determined by HPLC; their respective solubility was obtained by calculating the absorption peak area.
The experimental instrument was Shimadzu LC-16, the chromatographic column was Hypersil C18 ODS (4.6×250 mm×5 μm), the flow rate was 1.0 mL/min, the detection wavelength was 300 nm, and the mobile phase was 0.05 mol/L of aqueous acetic acid solution:acetonitrile=30:70.

[23] = ATCC19606, ATCC 19606, read-out: Minimum inhibitory concentration
[24] = ATCC25922, ATCC 25922, read-out: Minimum inhibitory concentration
[25] = CMCC44103, CMCC 44103, read-out: Minimum inhibitory concentration
[26] = ATCC14028, ATCC 14028, read-out: Minimum inhibitory concentration
[27] = ATCC25923, ATCC 25923, read-out: Minimum inhibitory concentration
[28] = ATCC29213, ATCC 29213, read-out: Minimum inhibitory concentration
[29] = ATCC12228, ATCC 12228, read-out: Minimum inhibitory concentration
[30] = ATCC33591, ATCC 33591, read-out: Minimum inhibitory concentration
[31] = pH 1.5, simulated gastric fluid
[32] = ATCC19606, read-out: Minimum inhibitory concentration
[33] = ATCC25922, read-out: Minimum inhibitory concentration
[34] = CMCC44103, read-out: Minimum inhibitory concentration
[35] = ATCC14028, read-out: Minimum inhibitory concentration
[36] = ATCC25923, read-out: Minimum inhibitory concentration
[37] = ATCC29213, read-out: Minimum inhibitory concentration
[38] = ATCC12228, read-out: Minimum inhibitory concentration
[39] = ATCC33591, read-out: Minimum inhibitory concentration
[40] = read-out: Minimum inhibitory concentration against clinical drug-resistant bacteria
[41] = MRSA, read-out: Minimum inhibitory concentration against clinical drug-resistant bacteria

Structure (SMILES)	MIC [1, 23] [µg/mL]	MIC [2, 24] [µg/mL]	MIC [3, 25] [µg/mL]	MIC (Salmonella ATCC 14028; [26]) [µg/mL]	MIC [4, 27] [µg/mL]	MIC [5, 28] [µg/mL]	MIC [6, 29] [µg/mL]	MIC [7, 30] [µg/mL]	solubility (physchem; organic solvent or mixture) [µg/mL]	solubility (physchem; [31]) [µg/mL]	solubility (physchem; pH 7, water) [µg/mL]	MIC [1, 32] [µg/mL]	MIC [2, 33] [µg/mL]	MIC [3, 34] [µg/mL]	MIC (Salmonella ATCC 14028; [35]) [µg/mL]	MIC [4, 36] [µg/mL]	MIC [5, 37] [µg/mL]	MIC [6, 38] [µg/mL]	MIC [7, 39] [µg/mL]	other results
C=C[C@]1(C)C[C@@H](OC(=O)CSc2nc(-c3cc[n+](Cc4ccc(C)cc4)cc3)cs2)[C@]2(C)[C@H](C)CC[C@]3(CCC(=O)[C@H]32)[C@@H](C)[C@@H]1O [Compound 2, 1-(4-Methylbenzyl)-4-(2-((2-((8-hydroxy-4,7,9,12-tetramethyl-3-oxo-7-vinyldecahydro-4,9a-propancyclopent[8]cyclen-5-yl)oxy)-2-oxoethyl)thio)thiazol-4-yl)pyridyl bromide salt]	1	0.0625	0.5	2	0.0625	0.0625	1	1	13200	2760	2020	–	–	–	–	–	–	–	–	MIC ([8]; CR-AB 18-184, read-out: Minimum inhibitory concentration against clinical drug-resistant bacteria): 16 µg/mL; MIC ([9]; CR-AB 18-560, read-out: Minimum inhibitory concentration against clinical drug-resistant bacteria): > 128 µg/mL; MIC ([10]; CR-AB 18-882, read-out: Minimum inhibitory concentration against clinical drug-resistant bacteria): 8 µg/mL; MIC ([11]; MRSA 18-171, read-out: Minimum inhibitory concentration against clinical drug-resistant bacteria): 4 µg/mL; MIC ([12]; MRSA 18-209, read-out: Minimum inhibitory concentration against clinical drug-resistant bacteria): 128 µg/mL; MIC ([13]; MRSA 18-575, read-out: Minimum inhibitory concentration against clinical drug-resistant bacteria): > 128 µg/mL; MIC ([14]; MDR-KP 18-1482, read-out: Minimum inhibitory concentration against clinical drug-resistant bacteria): 64 µg/mL; MIC ([15]; MDR-KP 18-754, read-out: Minimum inhibitory concentration against clinical drug-resistant bacteria): 32 µg/mL; MIC ([16]; MDR-KP 18-893, read-out: Minimum inhibitory concentration against clinical drug-resistant bacteria): 16 µg/mL; MIC ([17]; MDR-PA 18-126, read-out: Minimum inhibitory concentration against clinical drug-resistant bacteria): 64 µg/mL; MIC ([18]; MDR-PA 18-756, read-out: Minimum inhibitory concentration against clinical drug-resistant bacteria): 128 µg/mL; MIC ([19]; MDR-PA 18-993, read-out: Minimum inhibitory concentration against clinical drug-resistant bacteria): 128 µg/mL; MIC ([20]; VRE 18-507): > 128 µg/mL; MIC ([21]; VRE 18-80): 2 µg/mL; MIC ([22]; VRE 18-94): > 128 µg/mL
C=C[C@]1(C)C[C@@H](OC(=O)CSc2nc(-c3cc[n+](Cc4cc(F)cc(F)c4)cc3)cs2)[C@]2(C)[C@H](C)CC[C@]3(CCC(=O)[C@H]32)[C@@H](C)[C@@H]1O [Compound 15, 1-(3,5-difluorobenzyl)-4-(2-(8-hydroxy-4,7,9,12-tetramethyl-3-oxo-7-vinyldecahydro-4,9a-propancyclopent[8]cyclen-5-yl)oxy)-2-oxoethyl)thiazol-4-yl)pyridyl bromide salt]	8	16	32	16	128	64	32	64	–	–	–	–	–	–	–	–	–	–	–	–
C=C[C@]1(C)C[C@@H](OC(=O)CS[C@@H]2C[C@H]3CC[C@@H](C2)N3C)[C@]2(C)[C@H](C)CC[C@]3(CCC(=O)[C@H]32)[C@@H](C)[C@@H]1O [Retapamulin hydrochloride, retapamulin hydrochloride, reference compound]	–	–	–	–	–	–	–	–	1150	230	120	–	–	–	–	–	–	–	–	–
C=C[C@]1(C)C[C@@H](OC(=O)CS[C@@H]2C[C@H]3CC[C@@H](C2)N3C)[C@]2(C)[C@H](C)CC[C@]3(CCC(=O)[C@H]32)[C@@H](C)[C@@H]1O [Retapamulin, retapamulin, reference compound]	–	–	–	–	–	–	–	–	–	–	–	16 (≈ 30.9 µM)	32 (≈ 61.8 µM)	32 (≈ 61.8 µM)	128 (≈ 247 µM)	4 (≈ 7.73 µM)	4 (≈ 7.73 µM)	32 (≈ 61.8 µM)	32 (≈ 61.8 µM)	MIC [8, 40]: 128 µg/mL (≈ 247 µM); MIC [9, 40]: 128 µg/mL (≈ 247 µM); MIC [10, 40]: 64 µg/mL (≈ 124 µM); MIC [11, 41]: 128 µg/mL (≈ 247 µM); MIC [12, 41]: 128 µg/mL (≈ 247 µM); MIC [13, 41]: > 128 µg/mL; MIC [14, 40]: 64 µg/mL (≈ 124 µM); MIC [15, 40]: 128 µg/mL (≈ 247 µM); MIC [16, 40]: 64 µg/mL (≈ 124 µM); MIC [17, 40]: 128 µg/mL (≈ 247 µM); MIC [18, 40]: > 128 µg/mL; MIC [19, 40]: 128 µg/mL (≈ 247 µM); MIC [20]: > 128 µg/mL; MIC [21]: > 128 µg/mL; MIC [22]: > 128 µg/mL
C=C[C@]1(C)C[C@@H](OC(=O)CSC(C)(C)CNC(=O)[C@H](N)C(C)C)[C@]2(C)[C@H](C)CC[C@]3(CCC(=O)[C@H]32)[C@@H](C)[C@@H]1O [Valnemulin, valnemulin, reference compound]	–	–	–	–	–	–	–	–	–	–	–	2 (≈ 3.54 µM)	16 (≈ 28.3 µM)	64 (≈ 113 µM)	64 (≈ 113 µM)	4 (≈ 7.08 µM)	2 (≈ 3.54 µM)	64 (≈ 113 µM)	> 128	–
